In patent publication US8313766B2, “Oral antidepressant formulation with reduced excipient load” (priority 2010, dated 2012):
In brackets after ≈: the same amount, converted by molar mass.

What was measured:
[1] = CX-157 solubility in candidate solvents, test tube method; format: physicochemical; settings: organic solvent or mixture, thermodynamic from solid, CX-157 Form A
Experimental: Ethanol, acetone and methylene chloride were selected and tested as candidate solvents. CX-157 solubility in the solvent was performed using a test tube method. A specific amount of CX-157 (Form A: disclosed in U.S. Pat. Pub. No. 2008/0009542 herein incorporated by reference in it entirety) was added into 1 mL test solvent and the sample was agitated vigorously by a Beadbeater (BB). If CX-157 was completely soluble in 1 mL of test solvent, additional CX-157 was added until excess solid was present. The solubility (mg/mL) of CX-157 was calculated by the amount (mass) of CX-157 added to the test solvent (1 mL). Acetone had the highest solubility of the solvents tested with a solubility of from about 60 mg/mL to about 80 mg/mL at room temperature.

[2] = Solubility of CX-157 in water (descriptive statement); format: physicochemical
[3] = human plasma, oral dose of 200 mg in a capsule with food; cited from earlier work

In the case of `O=S1(=O)c2ccc(F)cc2Oc2cc(OCC(F)(F)F)ccc21` [CX-157, 3-fluoro-7-(2,2,2-trifluoroethoxy)phenoxathiin 10,10-dioxide], the solubility ([1]; solvent acetone, at room temperature) is reported as 60 to 80 mg/mL (≈ 172 to 230 mM), the solubility ([1]; solvent ethanol, at 60° C.) is reported as < 10 mg/mL and the solubility ([1]; solvent methylene chloride, at room temperature) is reported as < 20 mg/mL. The solubility in water [2] was “only sparing solubility”.

In the case of `NCCc1ccc(O)cc1` [tyramine], the Tmax [3] is given as ≤ 1.25 h and the “time after dosing at which non-detectable levels observed” value [3] is given as 3 to 4 h.
